Assay results published in article PMC12106329, “Chronic alcohol intake disrupts cytochrome P450 enzyme activity in alcoholic fatty liver disease: insights into metabolic alterations and therapeutic targets” (Frontiers in Chemistry, 2025).
Several values for one entry are separate records, joined by “and”; a condition that tells them apart may be missing. Equal entries are not always repeated. Where two headings read alike, the source gives them in different places.

How the values were obtained:
ROS = details: AM group, oral ethanol 12 weeks; vs NC and SC groups
Description: Reactive oxygen species (ROS) levels were detected using the fluorescent dye 2′,7′-dichlorodihydrofluorescein diacetate (DCF) (HY-D0940, Abcam, United Kingdom). […] Endothelial cells (2 × 10^4 cells) were seeded on coverslips in six-well plates and cultured overnight. The cells were treated with H2O2 (200 μM) the next day for 24 h. After treatment, the coverslips were washed with ice-cold Hank’s Balanced Salt Solution (HBSS) (H8264, Sigma Aldrich, Shanghai, China) and incubated with 100 μM DCFDA at 37°C for 30 min. After washing, the coverslips were mounted onto slides and imaged using a multiphoton confocal microscope (A1R, Nikon, United States) with a ×100 objective. Images were analyzed using Nikon Imaging Software NIS-Element.

CYP2C11 mRNA = details: AM group, oral ethanol 12 weeks; compared to NC and SC groups
Description: (§1) Sixty healthy male Sprague-Dawley rats (SD-2024-RAT-045, Beijing Vital River Laboratory Animal Technology Co., Ltd., Beijing, China) weighing 200–250 g were selected. The animals were housed under a 12-h light/dark cycle at a constant laboratory temperature of 22°C ± 2°C and relative humidity of 50% ± 10%, with access to ample food and water. Sixty rats were randomly assigned to four groups (fifteen rats per group): the normal control group (NC group), the sucrose solution group (SC group), the ethanol intake group (AM group), and the ethanol intake group with simultaneous overexpression of CYP2C11 and CYP2B6 (AM + oe-CYP2C11&CYP2B6 group). The NC group received an equal volume of normal saline daily via oral gavage. The SC group was given an 18% sucrose solution (w/v) and an equal volume of normal saline instead of ethanol. The AM group started with a 5% ethanol concentration, increasing by 5% weekly to 40% while maintaining a constant 18% sucrose concentration (v/v). The plasmid vector for gene overexpression, pCMV6-AC-GFP (LM-2069, LMAI Bio, Shanghai, China), was used to construct CYP2C11 and CYP2B6 plasmids, which were developed by Sangon Biotech (Shanghai, China). After constructing the AM rat model, overexpression plasmids were transfected into lentiviruses via tail vein injection ([Liu et al., 2020]). The lentivirus injections (5 × 10^7 IU/rat) were administered twice, with a minimum interval of 2 days between injections, starting on day 7 after the initiation of sucrose treatment ([Ma et al., 2020]).
(§2) The daily ethanol and sucrose feeding volumes were weight-adjusted for the rats, approximately 20 mL per kilogram of body weight, and continued for 12 weeks. Weekly monitoring of rat weight, observation and recording of appetite, general health status including activity level, fur condition, and behavioral changes were documented. Daily feeding amounts were meticulously recorded to accurately adjust ethanol and sucrose solution volumes. After 12 weeks, the rats were euthanized by cervical dislocation following unconsciousness induced by carbon dioxide (CO₂) inhalation. Liver tissues were dissected and stored at −80°C for subsequent histological and molecular biology analyses. Blood samples were collected, and serum was separated by centrifugation (3,000 rpm, 4°C, 15 min) and stored at −80°C for future use.
(§3) Total RNA was extracted from rat liver tissue using TRIzol reagent (15596026, Invitrogen, United States). cDNA was synthesized using the cDNA synthesis kit (RR036A, Takara, Japan). Specific gene expression was detected by combining the PCR master mix (206143, Qiagen, United States) with the Pikoreal 96 real-time PCR system (QPCR-96X, Thermo Scientific, United States). Quantitative PCR analysis was performed for CYP450 enzyme-related genes with the endogenous gene β-actin as a reference, and the relative mRNA expression levels were quantified by calculating the 2^−ΔΔCt values. All experiments were repeated three times.

CYP2E1 mRNA = details: AM group, oral ethanol 12 weeks; compared to NC and SC groups
Description: as §1, §2, §3

CYP2B6 mRNA = details: AM group, oral ethanol 12 weeks; compared to NC and SC groups
Description: as §1, §2, §3

CYP2D6 mRNA = details: AM group, oral ethanol 12 weeks; compared to NC and SC groups
Description: as §1, §2, §3

CYP1A2 mRNA = details: AM group, oral ethanol 12 weeks; compared to NC and SC groups
Description: as §1, §2, §3

CYP3A1 mRNA = details: AM group, oral ethanol 12 weeks; compared to NC and SC groups
Description: as §1, §2, §3

CYP2C11 [1] = details: AM group, oral ethanol 12 weeks
Description: as §1, §2
(§4) Rat liver microsomes were isolated using differential centrifugation. Each sample was mixed with 50 mM Tris-HCl buffer, homogenized, and then centrifuged at 10,000 × g for 30 min. The supernatant was centrifuged at 100,000 × g for 1 h using a high-speed centrifuge (Himac CP100WX, Hitachi, Japan).
(§5) The activities of CYP1A2, CYP2B6, CYP2C19, CYP2C11, CYP2E1, CYP2D6, and CYP3A1 were quantitatively determined using specific labeled substrates and an NADPH generation system containing 100 mM potassium phosphate buffer, 1 mM NADP (N1630, Sigma, United States), 10 mmol/L G-6-P (G7877, Sigma, United States), 0.1 U/mL G-6-PDH (G8529, Sigma, United States), and 5 mM MgCl2. The NADPH generation system was added to microsomes (total protein concentration of 1 mg/mL) with a total volume of 190 μL. Each reaction system was supplemented with 10 μL of substrate.

CYP2D6 [2] = details: AM group, oral ethanol 12 weeks; compared to NC and SC groups
Description: as §1, §2, §4, §5

CYP1A2 [3] = details: AM group, oral ethanol 12 weeks; compared to NC and SC groups
Description: as §1, §2, §4, §5

CYP3A1 [4] = details: AM group, oral ethanol 12 weeks; compared to NC and SC groups
Description: as §1, §2, §4, §5

CYP2B6 [5] = details: AM group, oral ethanol 12 weeks
Description: as §1, §2, §4, §5

CYP2E1 [6] = details: AM group, oral ethanol 12 weeks; compared to NC and SC groups
Description: as §1, §2, §4, §5

rat liver = details: AM group: oral ethanol 5% rising 5% weekly to 40% in 18% sucrose, about 20 mL/kg daily, 12 weeks; vs NC and SC groups
Description: as §1, with “The plasmid vector for gene overexpression, pCMV6-AC-GFP (LM-2069, LMAI Bio, Shanghai, China), was used to construct CYP2C11 and CYP2B6 plasmids, which were developed by Sangon Biotech (Shanghai, China). After constructing the AM rat model, overexpression plasmids were transfected into lentiviruses via tail vein injection ([Liu et al., 2020]). The lentivirus injections (5 × 10^7 IU/rat) were administered twice, with a minimum interval of 2 days between injections, starting on day 7 after the initiation of sucrose treatment ([Ma et al., 2020]).” left out
The daily ethanol and sucrose feeding volumes were weight-adjusted for the rats, approximately 20 mL per kilogram of body weight, and continued for 12 weeks. […] Daily feeding amounts were meticulously recorded to accurately adjust ethanol and sucrose solution volumes. […]

[7] = for AUC0-∞ / Cmax / T1/2 / T1/2 el / Tmax / MRT / AUC0-L∞: oral, serum, final dosing after 12 weeks, mean; for AUC0-L∞: time zero to last measurable concentration
Description: Rats were administered orally with the same doses of normal saline and ethanol in the NC, SC, and AM groups, following the same method. After 12 weeks, blood samples were collected from the rats at specified time points (0.5, 1, 2, 4, 6, 8, and 12 h post-dosing) during the final dosing. The blood samples were centrifuged to separate serum and then stored at −80°C for further use.
Utilizing liquid chromatography-mass spectrometry (LC-MS) technology, the concentrations of ethanol and its metabolites in serum samples were analyzed. Analyze the pharmacokinetic parameters of the drug, such as the maximum plasma concentration (Cmax), the mean residence time (MRT) of ethanol in the body, and the bioavailability of ethanol. Data processing was conducted using specialized software XCMS, involving peak identification, integration, and normalization. Multivariate statistical analyses were performed on metabolite data to reveal metabolic differences between groups, such as principal component analysis (PCA) and orthogonal partial least squares discriminant analysis (OPLS-DA). Metabolites were annotated and compared with known databases (HMDB, METLIN) to confirm their identities. Differences in pharmacokinetic parameters among the NC, SC, and AM groups were compared to evaluate the effects of alcohol exposure and CYP450 enzymes, aiming to identify metabolite variances.

CYP2C11 [8] = details: AM group, oral ethanol 12 weeks; remark: listed apart in the source
Description: as §1, §2
(§6) Liver samples were lysed using RIPA lysis buffer (P0013B, Beyotime, China). The total protein concentration was evaluated using the BCA protein assay kit (AR0146, Doctor’s Scientific Inc., China). SDS-PAGE was employed to separate total proteins, followed by protein transfer onto pre-wetted PVDF membranes with methanol (IPVH00010, Millipore Corp, United States). Non-specific protein blocking was carried out at room temperature for 3 h using TBST solution (BL315B, Boist, China) containing 5% milk. The target proteins were probed with primary antibodies overnight on […], followed by three washes with TBST/Tween 20 (0.075%) for 15 min each and subsequent incubation with labeled secondary antibodies for 1 h before washing. Protein visualization was performed using the Millipore Immobilon Western Chemiluminescent HRP substrate. The primary antibodies used in the experiments were polyclonal rabbit anti-human CYP450CYP1A2, 2B6, 2C11, 2C19, 2E1, 2D6, 3A1 (bs-20720R, Bioss, China) at a 1:300 dilution. The secondary antibodies, goat anti-mouse or anti-rabbit horseradish peroxidase conjugates, were diluted at 1:10,000 in TBST containing 5% milk. β-actin served as the loading control. The experiments were repeated three times.

CYP2D6 [9] = details: AM group, oral ethanol 12 weeks
Description: as §1, §2, §6

CYP1A2 [10] = details: AM group, oral ethanol 12 weeks
Description: as §1, §2, §6

CYP3A1 [11] = details: AM group, oral ethanol 12 weeks; compared to NC and SC groups; remark: listed apart in the source
Description: as §1, §2, §6

CYP2B6 [12] = details: AM group, oral ethanol 12 weeks; remark: listed apart in the source
Description: as §1, §2, §6

CYP2E1 [13] = details: AM group, oral ethanol 12 weeks
Description: as §1, §2, §6

CYP2C19 = details: AM group, oral ethanol 12 weeks
Description: as §1, §2, §6

ALDH2 = details: AM group, oral ethanol 12 weeks
Description: as §1, §2, §6

P-gp = details: AM group, oral ethanol 12 weeks
Description: as §1, §2, §6

[14] = AM group, oral ethanol 12 weeks; vs NC and SC groups
Description: as §1, §2
Serum-related indicators were measured using commercial assay kits (BioSino Biotechnology and Science Inc., Beijing, China) following the manufacturer’s protocols. Specifically, serum samples, substrates, and buffer solutions were prepared according to the kit instructions. The reaction mixture was incubated at 37°C for 20 min, and absorbance was measured at 340 nm to record changes. Concentrations were calculated based on a standard curve ([Li et al., 2018]).

[15] = SC group (sucrose solution) rats
[16] = rat serum after long-term alcohol exposure
[17] = liver, β-actin loading control, single replicates

## CCO [ethanol]
ROS
  intracellular ROS level: significant increase
CYP2C11 mRNA
  CYP2C11 mRNA level in liver: significantly lower
CYP2E1 mRNA
  CYP2E1 mRNA level in liver: significantly higher
CYP2B6 mRNA
  CYP2B6 mRNA level in liver: significantly lower
CYP2D6 mRNA
  CYP2D6 mRNA level in liver: significantly higher
CYP1A2 mRNA
  CYP1A2 mRNA level in liver: significantly higher
CYP3A1 mRNA
  CYP3A1 mRNA level in liver: significantly higher
CYP2C11 [1]
  CYP2C11 enzyme activity in liver microsomes: notable decreases
CYP2D6 [2]
  CYP2D6 enzyme activity in liver microsomes: significantly increased
CYP1A2 [3]
  CYP1A2 enzyme activity in liver microsomes: significantly increased
CYP3A1 [4]
  CYP3A1 enzyme activity in liver microsomes: significantly increased
CYP2B6 [5]
  CYP2B6 enzyme activity in liver microsomes: notable decreases
CYP2E1 [6]
  CYP2E1 enzyme activity in liver microsomes: significantly increased
Rat liver
  liver histology (H&E): macrovesicular steatosis
[7]; AM group (alcohol intake) rats
  AUC0-∞: 29120 ng·h/mL
  Cmax: 2375 ng/mL
  T1/2: 2.88 h
  T1/2 el: 17.04 h
  Tmax: 4.76 h
  AUC0-L∞: 27820 ng·h/mL
[7]; AM group (alcohol intake) rats, p < 0.01 vs NC
  MRT: 24.48 h
[7]; NC group (normal control) rats
  AUC0-∞: 22400 ng·h/mL
  Cmax: 1900 ng/mL
  MRT: 20.4 h
  T1/2: 2.4 h
  T1/2 el: 14.2 h
  Tmax: 4.75 h
  AUC0-L∞: 21400 ng·h/mL
[7]; NC, SC and AM groups, p > 0.05
  Tmax, difference among the groups: no significant difference
[7]; [15]
  AUC0-∞: 21300 ng·h/mL
  Cmax: 1890 ng/mL
  MRT: 19.8 h
  T1/2: 2.35 h
  T1/2 el: 13.5 h
  Tmax: 4.68 h
[7]; [16]
  AUC0-L∞, AM group vs other groups: significantly increased
  AUC0-∞, AM group vs other groups: significantly increased
[7]; rat, after long-term alcohol exposure
  clearance, AM group vs other groups: lower
CYP2C11 [8]; compared to NC and SC groups
  CYP2C11 protein level, change: significantly lower
CYP2C11 [8]; [17]
  CYP2C11 Relative protein expression: 0.76 and 0.74 and 0.78
CYP2D6 [9]; compared to NC and SC groups
  CYP2D6 protein expression, change: higher
CYP2D6 [9]; [17]
  CYP2D6 Relative protein expression: 3.37 and 3.45 and 2.83
CYP1A2 [10]; compared to NC and SC groups
  CYP1A2 protein expression, change: higher
CYP1A2 [10]; [17]
  CYPIA2 Relative protein expression: 1.50 and 1.52 and 1.65
CYP3A1 [11]
  CYP3A1 protein expression, change: higher
CYP2B6 [12]; compared to NC and SC groups
  CYP2B6 protein level, change: significantly lower
CYP2B6 [12]; [17]
  CYP2B6 Relative protein expression: 0.28 and 0.3 and 0.29
CYP2E1 [13]; compared to NC and SC groups
  CYP2E1 protein expression, change: higher
CYP2E1 [13]; [17]
  CYP2E1 Relative protein expression: 1.88 and 2.01 and 1.78
CYP2C19; across all groups
  CYP2C19 protein expression, change: no significant difference
CYP2C19; [17]
  CYP2C19 Relative protein expression: 1.22 and 1.39 and 1.27
ALDH2; compared with NC and SC groups
  ALDH2 protein level, change: increased
ALDH2; [17]
  ALDH2 Relative protein expression: 1.34 and 1.48 and 1.49
P-gp
  P-gp protein expression, change: significant increase
P-gp; [17]
  P-gp Relative protein expression: 1.61 and 1.33 and 1.52
[14]
  MDA level: significantly increased
  SOD level: significantly decreased
  serum ALT level: significantly increased
  serum AST level: significantly increased
  total cholesterol (TC) level: significantly increased
  triglyceride (TG) level: significantly increased
